Data from ChEMBL document CHEMBL5113398, “Design and synthesis of new quinoline derivatives as selective C-RAF kinase inhibitors with potent anticancer activity” (Eur J Med Chem, 2022).

Key:
PC-3 [1] = assay: Anticancer activity against human PC-3 cells assessed as total cell growth inhibition incubated for 48 hrs by SRB assay; type: functional
EKVX [2] = assay: Anticancer activity against human EKVX cells assessed as cell growth inhibition incubated for 48 hrs by SRB assay; type: functional
CAKI-1 [3] = assay: Anticancer activity against human CAKI-1 cells assessed as cell growth inhibition incubated for 48 hrs by SRB assay; type: functional
786-0 = assay: Anticancer activity against human 786-0 cells assessed as cell growth inhibition incubated for 48 hrs by SRB assay; type: functional
RXF 393 [4] = assay: Anticancer activity against human RXF 393 cells assessed as cell growth inhibition incubated for 48 hrs by SRB assay; type: functional
SF-295 = assay: Anticancer activity against human SF-295 cells assessed as total cell growth inhibition incubated for 48 hrs by SRB assay; type: functional
RXF 393 [5] = assay: Anticancer activity against human RXF 393 cells assessed as total cell growth inhibition incubated for 48 hrs by SRB assay; type: functional
NCI-H322M [6] = assay: Anticancer activity against human NCI-H322M cells assessed as cell growth inhibition incubated for 48 hrs by SRB assay; type: functional
NCI-H23 [7] = assay: Anticancer activity against human NCI-H23 cells assessed as cell growth inhibition incubated for 48 hrs by SRB assay; type: functional
HOP-92 = assay: Anticancer activity against human HOP-92 cells assessed as total cell growth inhibition incubated for 48 hrs by SRB assay; type: functional
HOP-62 = assay: Anticancer activity against human HOP-62 cells assessed as total cell growth inhibition incubated for 48 hrs by SRB assay; type: functional
EKVX [8] = assay: Anticancer activity against human EKVX cells assessed as total cell growth inhibition incubated for 48 hrs by SRB assay; type: functional
NCI-H226 = assay: Anticancer activity against human NCI-H226 cells assessed as cell growth inhibition incubated for 48 hrs by SRB assay; type: functional
SNB-75 [9] = assay: Anticancer activity against human SNB-75 cells assessed as cell growth inhibition incubated for 48 hrs by SRB assay; type: functional
NCI-H23 [10] = assay: Anticancer activity against human NCI-H23 cells assessed as total cell growth inhibition incubated for 48 hrs by SRB assay; type: functional
NCI/ADR-RES = assay: Anticancer activity against human NCI/ADR-RES cells assessed as total cell growth inhibition incubated for 48 hrs by SRB assay; type: functional
SK-MEL-28 = assay: Anticancer activity against human SK-MEL-28 cells assessed as total cell growth inhibition incubated for 48 hrs by SRB assay; type: functional
[11] = molecular target: Vascular endothelial growth factor receptor 2 (Homo sapiens) (UniProt P35968); assay: Inhibition of VEGFR2 (unknown origin) at 1 uM in presence of ATP by hotspot kinase assay
Chain of Vascular endothelial growth factor receptor 2 (Homo sapiens) (P35968 whole entry): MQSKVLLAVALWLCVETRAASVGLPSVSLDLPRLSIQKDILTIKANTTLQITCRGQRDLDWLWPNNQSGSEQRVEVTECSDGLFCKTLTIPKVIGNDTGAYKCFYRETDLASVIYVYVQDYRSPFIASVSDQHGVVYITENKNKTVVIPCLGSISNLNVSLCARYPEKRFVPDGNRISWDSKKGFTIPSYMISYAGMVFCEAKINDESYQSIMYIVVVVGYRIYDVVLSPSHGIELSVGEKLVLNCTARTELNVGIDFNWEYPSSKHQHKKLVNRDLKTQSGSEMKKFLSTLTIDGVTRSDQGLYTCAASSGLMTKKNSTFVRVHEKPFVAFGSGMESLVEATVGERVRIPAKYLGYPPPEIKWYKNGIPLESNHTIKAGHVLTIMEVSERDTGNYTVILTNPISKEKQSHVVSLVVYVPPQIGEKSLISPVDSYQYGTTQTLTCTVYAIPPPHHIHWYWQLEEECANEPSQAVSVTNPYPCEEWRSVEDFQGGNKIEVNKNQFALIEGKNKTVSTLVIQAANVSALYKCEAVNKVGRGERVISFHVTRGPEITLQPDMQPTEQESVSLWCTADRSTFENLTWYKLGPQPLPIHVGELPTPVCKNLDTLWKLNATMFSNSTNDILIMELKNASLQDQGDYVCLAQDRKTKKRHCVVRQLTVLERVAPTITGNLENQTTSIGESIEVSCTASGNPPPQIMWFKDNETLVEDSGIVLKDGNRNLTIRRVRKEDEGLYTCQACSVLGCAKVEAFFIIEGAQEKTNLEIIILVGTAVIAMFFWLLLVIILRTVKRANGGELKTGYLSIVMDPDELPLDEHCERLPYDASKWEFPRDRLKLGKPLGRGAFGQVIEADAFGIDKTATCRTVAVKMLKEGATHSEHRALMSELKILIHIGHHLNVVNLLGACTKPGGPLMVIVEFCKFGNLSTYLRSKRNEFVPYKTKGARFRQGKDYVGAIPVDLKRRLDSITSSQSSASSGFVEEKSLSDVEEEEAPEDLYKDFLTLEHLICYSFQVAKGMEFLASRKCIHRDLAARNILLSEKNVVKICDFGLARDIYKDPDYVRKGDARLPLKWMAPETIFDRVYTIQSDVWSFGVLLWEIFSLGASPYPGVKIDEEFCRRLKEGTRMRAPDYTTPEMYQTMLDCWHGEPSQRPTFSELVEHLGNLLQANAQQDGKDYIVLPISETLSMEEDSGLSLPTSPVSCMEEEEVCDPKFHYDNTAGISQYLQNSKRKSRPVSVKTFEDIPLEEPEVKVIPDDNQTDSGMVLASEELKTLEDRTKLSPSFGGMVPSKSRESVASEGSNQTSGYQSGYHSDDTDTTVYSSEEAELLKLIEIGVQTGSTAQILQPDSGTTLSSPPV

MDA-MB-231 = assay: Anticancer activity against human MDA-MB-231 cells assessed as cell growth inhibition incubated for 48 hrs by SRB assay; type: functional
OVCAR-8 [12] = assay: Anticancer activity against human OVCAR-8 cells assessed as total cell growth inhibition incubated for 48 hrs by SRB assay; type: functional
NCI-H322M [13] = assay: Anticancer activity against human NCI-H322M cells assessed as total cell growth inhibition incubated for 48 hrs by SRB assay; type: functional
OVCAR-3 [14] = assay: Anticancer activity against human OVCAR-3 cells assessed as cell growth inhibition incubated for 48 hrs by SRB assay; type: functional
HCC 2998 [15] = assay: Anticancer activity against human HCC 2998 cells assessed as cell growth inhibition incubated for 48 hrs by SRB assay; type: functional
ACHN [16] = assay: Anticancer activity against human ACHN cells assessed as total cell growth inhibition incubated for 48 hrs by SRB assay; type: functional
BT-549 [17] = assay: Anticancer activity against human BT-549 cells assessed as cell growth inhibition incubated for 48 hrs by SRB assay; type: functional
ACHN [18] = assay: Anticancer activity against human ACHN cells assessed as cell growth inhibition incubated for 48 hrs by SRB assay; type: functional
MOLT-4 = assay: Anticancer activity against human MOLT-4 cells assessed as cell growth inhibition incubated for 48 hrs by SRB assay; type: functional
A549 = assay: Anticancer activity against human A549 cells assessed as total cell growth inhibition incubated for 48 hrs by SRB assay; type: functional
SF-268 = assay: Anticancer activity against human SF-268 cells assessed as total cell growth inhibition incubated for 48 hrs by SRB assay; type: functional
OVCAR-8 [19] = assay: Anticancer activity against human OVCAR-8 cells assessed as cell growth inhibition incubated for 48 hrs by SRB assay; type: functional
OVCAR-5 [20] = assay: Anticancer activity against human OVCAR-5 cells assessed as total cell growth inhibition incubated for 48 hrs by SRB assay; type: functional
SF-539 = assay: Anticancer activity against human SF-539 cells assessed as total cell growth inhibition incubated for 48 hrs by SRB assay; type: functional
RPMI-8226 = assay: Anticancer activity against human RPMI-8226 cells assessed as total cell growth inhibition incubated for 48 hrs by SRB assay; type: functional
SNB-75 [21] = assay: Anticancer activity against human SNB-75 cells assessed as total cell growth inhibition incubated for 48 hrs by SRB assay; type: functional
HT-29 = assay: Anticancer activity against human HT-29 cells assessed as cell growth inhibition incubated for 48 hrs by SRB assay; type: functional
OVCAR-4 = assay: Anticancer activity against human OVCAR-4 cells assessed as cell growth inhibition incubated for 48 hrs by SRB assay; type: functional
CAKI-1 [22] = assay: Anticancer activity against human CAKI-1 cells assessed as total cell growth inhibition incubated for 48 hrs by SRB assay; type: functional
OVCAR-3 [23] = assay: Anticancer activity against human OVCAR-3 cells assessed as total cell growth inhibition incubated for 48 hrs by SRB assay; type: functional
BT-549 [24] = assay: Anticancer activity against human BT-549 cells assessed as total cell growth inhibition incubated for 48 hrs by SRB assay; type: functional
TK-10 = assay: Anticancer activity against human TK-10 cells assessed as total cell growth inhibition incubated for 48 hrs by SRB assay; type: functional
NCI-H460 = assay: Anticancer activity against human NCI-H460 cells assessed as total cell growth inhibition incubated for 48 hrs by SRB assay; type: functional
U-251 = assay: Anticancer activity against human U-251 cells assessed as cell growth inhibition incubated for 48 hrs by SRB assay; type: functional
HCC 2998 [25] = assay: Anticancer activity against human HCC 2998 cells assessed as total cell growth inhibition incubated for 48 hrs by SRB assay; type: functional
[26] = molecular target: RAF proto-oncogene serine/threonine-protein kinase (Homo sapiens, UniProt P04049); assay: Inhibition of c-Raf (unknown origin) in presence of ATP by hotspot kinase assay
Chain of RAF proto-oncogene serine/threonine-protein kinase (P04049 whole entry): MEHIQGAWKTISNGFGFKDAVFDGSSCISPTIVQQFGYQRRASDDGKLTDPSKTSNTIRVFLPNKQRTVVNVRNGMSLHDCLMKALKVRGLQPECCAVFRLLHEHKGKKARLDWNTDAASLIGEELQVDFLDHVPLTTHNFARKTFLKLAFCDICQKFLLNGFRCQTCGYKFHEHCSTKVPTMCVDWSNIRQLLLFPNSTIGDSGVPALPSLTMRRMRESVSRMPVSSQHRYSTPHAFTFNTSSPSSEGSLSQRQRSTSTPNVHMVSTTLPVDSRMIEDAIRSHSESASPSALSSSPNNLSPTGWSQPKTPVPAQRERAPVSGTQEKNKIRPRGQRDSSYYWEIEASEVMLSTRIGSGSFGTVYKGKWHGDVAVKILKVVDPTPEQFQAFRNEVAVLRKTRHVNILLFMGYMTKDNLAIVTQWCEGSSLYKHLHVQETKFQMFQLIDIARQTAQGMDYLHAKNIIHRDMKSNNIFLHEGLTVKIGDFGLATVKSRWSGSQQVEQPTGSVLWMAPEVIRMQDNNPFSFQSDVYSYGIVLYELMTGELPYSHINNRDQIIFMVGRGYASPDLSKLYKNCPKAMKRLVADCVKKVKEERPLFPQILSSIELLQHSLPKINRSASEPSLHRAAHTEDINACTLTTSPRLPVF

OVCAR-5 [27] = assay: Anticancer activity against human OVCAR-5 cells assessed as cell growth inhibition incubated for 48 hrs by SRB assay; type: functional
PC-3 [28] = assay: Anticancer activity against human PC-3 cells assessed as cell growth inhibition incubated for 48 hrs by SRB assay; type: functional
K562 = assay: Anticancer activity against human K562 cells assessed as total cell growth inhibition incubated for 48 hrs by SRB assay; type: functional
SNB-19 = assay: Anticancer activity against human SNB-19 cells assessed as cell growth inhibition incubated for 48 hrs by SRB assay; type: functional
LOX IMVI = assay: Anticancer activity against human LOX IMVI cells assessed as cell growth inhibition incubated for 48 hrs by SRB assay; type: functional

Work on `COc1cc2cc(Oc3ccc(NC(=O)Nc4cc(C(F)(F)F)cc(C(F)(F)F)c4)cc3)c(C)nc2cc1OCCN1CCOCC1` yielded a TGI (PC-3 [1]) of 5.16 µM, a GI50 (EKVX [2]) of 1.64 µM and a GI50 (CAKI-1 [3]) of 1.47 µM. The GI50 (786-0) was 1.28 µM, the GI50 (RXF 393 [4]) was 1.12 µM and the TGI (SF-295) was 2.92 µM. The TGI (RXF 393 [5]) was 2.99 µM, the GI50 (NCI-H322M [6]) was 1.82 µM and the GI50 (NCI-H23 [7]) was 1.66 µM. The TGI (HOP-92) was 2.71 µM, the TGI (HOP-62) was 9.16 µM and the TGI (EKVX [8]) was 6.68 µM. The GI50 (NCI-H226) was 1.6 µM, the GI50 (SNB-75 [9]) was 1.02 µM and the TGI (NCI-H23 [10]) was 6.69 µM. It also gave a TGI (NCI/ADR-RES) of 7.21 µM, a TGI (SK-MEL-28) of 6.94 µM and an inhibition [11] of 6.34%. It also gave a GI50 (MDA-MB-231) of 1.7 µM, a TGI (OVCAR-8 [12]) of 12.8 µM and a TGI (NCI-H322M [13]) of 6.87 µM. It also gave a GI50 (OVCAR-3 [14]) of 1.43 µM, a GI50 (HCC 2998 [15]) of 2.09 µM and a TGI (ACHN [16]) of 5.42 µM. The GI50 (BT-549 [17]) was 1.87 µM, the GI50 (ACHN [18]) was 1.53 µM and the GI50 (MOLT-4) was 1.32 µM. The TGI (A549) was 7.23 µM, the TGI (SF-268) was 8.06 µM and the GI50 (OVCAR-8 [19]) was 1.67 µM. The TGI (OVCAR-5 [20]) was 7.97 µM, the TGI (SF-539) was 5.25 µM and the TGI (RPMI-8226) was 2.12 µM. It also gave a TGI (SNB-75 [21]) of 4.48 µM, a GI50 (HT-29) of 1.75 µM and a GI50 (OVCAR-4) of 1.88 µM. The TGI (CAKI-1 [22]) was 5.68 µM, the TGI (OVCAR-3 [23]) was 5.28 µM and the TGI (BT-549 [24]) was 7.35 µM. The TGI (TK-10) was 12.5 µM, the TGI (NCI-H460) was 5.52 µM and the GI50 (U-251) was 1.13 µM. The TGI (HCC 2998 [25]) was 6.97 µM, the IC50 [26] was 0.193 µM and the GI50 (OVCAR-5 [27]) was 2.18 µM. For the same compound, the GI50 (PC-3 [28]) was 1.18 µM, the TGI (K562) was 5.5 µM and the GI50 (SNB-19) was 1.88 µM. The GI50 (LOX IMVI) was 1.46 µM.

`COc1cc2cc(Oc3ccc(NC(=O)Nc4ccc(F)c(C(F)(F)F)c4)cc3)c(C)nc2cc1OCCN1CCOCC1` was tested, and the TGI (PC-3 [1]) was 10.1 µM, the GI50 (EKVX [2]) was 2.53 µM and the GI50 (CAKI-1 [3]) was 2.06 µM. For the same compound, the GI50 (786-0) was 1.73 µM, the GI50 (RXF 393 [4]) was 1.78 µM and the TGI (SF-295) was 4.22 µM. It also gave a TGI (RXF 393 [5]) of 3.94 µM, a GI50 (NCI-H322M [6]) of 3.37 µM and a GI50 (NCI-H23 [7]) of 1.43 µM. It also gave a TGI (HOP-92) of 4.96 µM, a TGI (HOP-62) of 20.5 µM and a TGI (EKVX [8]) of 20.7 µM. It also gave a GI50 (NCI-H226) of 2.55 µM, a GI50 (SNB-75 [9]) of 1.96 µM and a TGI (NCI-H23 [10]) of 5.88 µM. For the same compound, the TGI (NCI/ADR-RES) was 12.1 µM, the TGI (SK-MEL-28) was 3.13 µM and the inhibition [11] was -5.85%. For the same compound, the GI50 (MDA-MB-231) was 2.83 µM, the TGI (OVCAR-8 [12]) was > 100 µM and the TGI (NCI-H322M [13]) was 13.6 µM. The GI50 (OVCAR-3 [14]) was 2.94 µM, the GI50 (HCC 2998 [15]) was 5.34 µM and the TGI (ACHN [16]) was 11.4 µM. For the same compound, the GI50 (BT-549 [17]) was 2.44 µM, the GI50 (ACHN [18]) was 2.3 µM and the GI50 (MOLT-4) was 1.86 µM. The TGI (A549) was 34.3 µM, the TGI (SF-268) was 19.8 µM and the GI50 (OVCAR-8 [19]) was 2.73 µM. The TGI (OVCAR-5 [20]) was 21.7 µM, the TGI (SF-539) was 3.44 µM and the TGI (RPMI-8226) was 4.25 µM. For the same compound, the TGI (SNB-75 [21]) was 7.45 µM, the GI50 (HT-29) was 3.07 µM and the GI50 (OVCAR-4) was 0.71 µM. For the same compound, the TGI (CAKI-1 [22]) was 9.55 µM, the TGI (OVCAR-3 [23]) was 13.6 µM and the TGI (BT-549 [24]) was 8.46 µM. It also gave a TGI (TK-10) of 25.1 µM, a TGI (NCI-H460) of 5.34 µM and a GI50 (U-251) of 2.83 µM. The TGI (HCC 2998 [25]) was 16.7 µM, the IC50 [26] was 0.067 µM and the GI50 (OVCAR-5 [27]) was 5.11 µM. For the same compound, the GI50 (PC-3 [28]) was 1.44 µM, the TGI (K562) was 10.3 µM and the GI50 (SNB-19) was 3.96 µM. For the same compound, the GI50 (LOX IMVI) was 1.44 µM.
